Each block holds one molecule with its values, some of them ahead of it.
Tests used:
Cathepsin S = Cathepsin S (Homo sapiens, UniProt P25774); assay: Cathepsin S inhibition assay (fluorogenic peptide substrate); format: biochemical; conditions: Table II, compounds of Formula I; read-out: Ki Cat. S
Method in brief: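 Ki values come from nonlinear fitting of inhibited hydrolysis rates, taking free and total inhibitor concentrations as equal. Rates measured as rising fluorescence at 380/450 nm after reaction start with 50 μM final acetyl-HPVK-aminocarbamoylcoumarin.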

Cathepsin K = target: T1, Cathepsin K (Homo sapiens, UniProt P43235); assay: Cathepsin K inhibition assay (fluorogenic peptide substrate); selectivity ratio vs cathepsin S; format: biochemical; conditions: ratio of cathepsin K inhibition constant to cathepsin S inhibition constant; Table II
T1 sequence (P43235 115-329): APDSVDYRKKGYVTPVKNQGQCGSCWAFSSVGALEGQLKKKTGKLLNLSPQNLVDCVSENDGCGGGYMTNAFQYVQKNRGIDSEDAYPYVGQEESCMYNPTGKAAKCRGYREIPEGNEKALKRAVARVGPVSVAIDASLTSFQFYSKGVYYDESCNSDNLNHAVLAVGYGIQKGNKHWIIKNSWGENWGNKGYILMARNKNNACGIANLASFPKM
Method in brief: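 Inhibition constants for competitive inhibitors come from apparent values fitted to enzyme progress curves. Substrate, acetyl-Lys-His-Pro-Lys-aminocarbamoylcoumarin (40 μM final), starts the reaction; fluorescence rise read at 380 nm excitation, 450 nm emission. Selectivity ratio: other cathepsin constant over cathepsin S constant.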

Chain of Cathepsin S (P25774 115-331, species assumed): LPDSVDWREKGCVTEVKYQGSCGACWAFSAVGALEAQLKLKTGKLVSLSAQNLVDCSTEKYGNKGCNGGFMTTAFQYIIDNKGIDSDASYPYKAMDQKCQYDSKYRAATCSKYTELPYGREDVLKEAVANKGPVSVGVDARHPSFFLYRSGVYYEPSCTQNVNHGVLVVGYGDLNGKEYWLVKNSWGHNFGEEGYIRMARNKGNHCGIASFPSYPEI

Compound: COc1ccc(NCCNC(=O)[C@H](Cc2cccc(Cl)c2)NC(=O)c2ccc(-c3cccc(C(F)(F)F)c3)o2)cc1 [Compound 3, N-((S)-1-(2-(4-methoxyphenylamino)ethylcarbamoyl)-2-(3-chlorophenyl)ethyl)-5-(3-(trifluoromethyl)phenyl)furan-2-carboxamide]
Ki (Cathepsin S): < 100 nM
Selectivity for Cat. S over Cat. K (Cathepsin K): +++ (+++, >1000)

Compound: COc1ccc(NCCNC(=O)[C@H](CC2CCCCC2)NC(=O)c2ccc(-c3ccc(Cl)cc3)cc2)cc1 [Compound 170, (S)-4′-Chloro-biphenyl-4-carboxylic acid {2-cyclohexyl-1-[2-(4-methoxy-phenylamino)-ethylcarbamoyl]-ethyl}-amide]
Ki (Cathepsin S): < 10000 nM
Selectivity for Cat. S over Cat. K (Cathepsin K): + (+, >10)

Compound: COc1ccc(NCCNC(=O)[C@H](Cc2ccc(C(C)(C)C)cc2)NC(=O)c2cccc(C)c2)cc1 [Compound 255, (S)-N-{2-(4-tert-Butyl-phenyl)-1-[2-(4-methoxy-phenylamino)-ethylcarbamoyl]-ethyl}-3-methyl-benzamide]
Ki (Cathepsin S): < 1000 nM
Selectivity for Cat. S over Cat. K (Cathepsin K): ++ (++, >100)

Compound: COc1ccc(NCCNC(=O)[C@H](CC2CCCCC2)NC(=O)c2ccc3ncsc3c2)cc1 [Compound 186, (S)-Benzothiazole-6-carboxylic acid {2-cyclohexyl-1-[2-(4-methoxy-phenylamino)-ethylcarbamoyl]-ethyl}-amide]
Ki (Cathepsin S): < 100 nM
Selectivity for Cat. S over Cat. K (Cathepsin K): ++ (++, >100)

Compound: COc1ccc(NCCNC(=O)[C@H](CC2CCCCC2)NC(=O)c2cccc(Cl)c2F)cc1 [Compound 155, (S)-3-Chloro-N-{2-cyclohexyl-1-[2-(4-methoxy-phenylamino)-ethylcarbamoyl]-ethyl}-2-fluoro-benzamide]
Ki (Cathepsin S): < 100 nM
Selectivity for Cat. S over Cat. K (Cathepsin K): +++ (+++, >1000)

Compound: Cc1ccc(-c2ccc(C(=O)N[C@@H](CC3CCCCC3)C(=O)NCCNc3ccc(OC(F)(F)F)cc3)o2)cc1 [Compound 70, 5-p-Tolyl-furan-2-carboxylic acid (S)-{2-cyclohexyl-1-[2-(4-trifluoromethoxy-phenylamino)-ethylcarbamoyl]-ethyl}-amide]
Ki (Cathepsin S): < 100 nM
Selectivity for Cat. S over Cat. K (Cathepsin K): +++ (+++, >1000)

Compound: COc1ccc(NCCNC(=O)[C@H](CC2CCCCC2)NC(=O)c2cccc(-c3ccc(Cl)cc3)c2)cc1 [Compound 175, (S)-4′-Chloro-biphenyl-3-carboxylic acid {2-cyclohexyl-1-[2-(4-methoxy-phenylamino)-ethylcarbamoyl]-ethyl}-amide]
Ki (Cathepsin S): < 100 nM
Selectivity for Cat. S over Cat. K (Cathepsin K): +++ (+++, >1000)

Compound: COc1ccc(NCCNC(=O)[C@H](CCC2CCCCC2)NC(=O)c2sc(N)nc2C)cc1 [Compound 133, (S)-2-Amino-4-methyl-thiazole-5-carboxylic acid {3-cyclohexyl-1-[2-(4-methoxy-phenylamino)-ethylcarbamoyl]-propyl}-amide]
Ki (Cathepsin S): < 1000 nM
Selectivity for Cat. S over Cat. K (Cathepsin K): ++ (++, >100)

Compound: COc1ccc(NCCNC(=O)[C@H](Cc2ccccc2)NC(=O)Nc2ccc(Cl)cc2)cc1 [Compound 88, (S)-2-[3-(4-Chloro-phenyl)-ureido]-N-[2-(4-methoxy-phenylamino)-ethyl]-3-phenyl-propionamide]
Ki (Cathepsin S): < 1000 nM
Selectivity for Cat. S over Cat. K (Cathepsin K): + (+, >10)

Compound: O=C(N[C@@H](CC1CCCCC1)C(=O)NCCNc1ccc(OC(F)(F)F)cc1)c1ccc(-c2ccccc2F)o1 [Compound 212, (S)-5-(2-Fluoro-phenyl)-furan-2-carboxylic acid {2-cyclohexyl-1-[2-(4-trifluoromethoxy-phenylamino)-ethylcarbamoyl]-ethyl}-amide]
Ki (Cathepsin S): < 100 nM
Selectivity for Cat. S over Cat. K (Cathepsin K): ++ (++, >100)

Compound: COc1ccc(NCCNC(=O)[C@H](Cc2ccc(-c3cccc(CO)c3)cc2)NC(=O)c2cccc(C)c2)cc1 [Compound 284, (S)-N-{2-(3′-Hydroxymethyl-biphenyl-4-yl)-1-[2-(4-methoxy-phenylamino)-ethylcarbamoyl]-ethyl}-3-methyl-benzamide]
Ki (Cathepsin S): < 1000 nM
Selectivity for Cat. S over Cat. K (Cathepsin K): ++ (++, >100)

Compound: COc1ccc(NCCNC(=O)[C@H](CCC2CCCCC2)NC(=O)c2ccc3ncsc3c2)cc1 [Compound 137, (S)-Benzothiazole-6-carboxylic acid {3-cyclohexyl-1-[2-(4-methoxy-phenylamino)-ethylcarbamoyl]-propyl}-amide]
Ki (Cathepsin S): < 100 nM
Selectivity for Cat. S over Cat. K (Cathepsin K): +++ (+++, >1000)

Compound: COc1ccc(NCCNC(=O)[C@H](CC2CCCCC2)NC(=O)c2cc3cc(F)ccc3[nH]2)cc1 [Compound 113, (S)-5-Fluoro-1H-indole-2-carboxylic acid {2-cyclohexyl-1-[2-(4-methoxy-phenylamino)-ethylcarbamoyl]-ethyl}-amide]
Ki (Cathepsin S): < 100 nM
Selectivity for Cat. S over Cat. K (Cathepsin K): + (+, >10)

Compound: N#Cc1cccc(C(=O)N[C@@H](CC2CCCCC2)C(=O)NCCNc2ccc(F)cc2)c1 [Compound 321, 3-Cyano-N-(S)-{2-cyclohexyl-1-[2-(4-fluoro-phenylamino)-ethylcarbamoyl]-ethyl}-benzamide]
Ki (Cathepsin S): < 1000 nM
Selectivity for Cat. S over Cat. K (Cathepsin K): ++ (++, >100)

Compound: COc1ccc(NCCNC(=O)[C@H](CC2CCCCC2)NC(=O)c2ccc(-c3cc(C(F)(F)F)ccc3Cl)o2)cc1 [Compound 193, (S)-5-(2-Chloro-5-trifluoromethyl-phenyl)-furan-2-carboxylic acid {2-cyclohexyl-1-[2-(4-methoxy-phenylamino)-ethylcarbamoyl]-ethyl}-amide]
Ki (Cathepsin S): < 100 nM
Selectivity for Cat. S over Cat. K (Cathepsin K): ++ (++, >100)

Compound: COc1cc(OC)nc(-c2ccc(C(=O)N[C@@H](CC3CCCCC3)C(=O)NCCNc3ccc(OC(F)(F)F)cc3)cc2)n1 [Compound 80, N-(S)-{2-cyclohexyl-1-[2-(4-trifluoromethoxy-phenylamino)-ethylcarbamoyl]-ethyl}-4-(4,6-dimethoxy-pyrimidin-2-yl)-benzamide]
Ki (Cathepsin S): < 1000 nM
Selectivity for Cat. S over Cat. K (Cathepsin K): +++ (+++, >1000)

The next lines start with the values.

Ki (Cathepsin S): < 100 nM
Selectivity for Cat. S over Cat. K (Cathepsin K): +++ (+++, >1000)
Compound: CS(=O)(=O)c1cccc(C(=O)N[C@@H](CC2CCCCC2)C(=O)NCCNc2ccc(F)cc2)c1 [Compound 296, N-(S)-{2-cyclohexyl-1-[2-(4-fluoro-phenylamino)-ethylcarbamoyl]-ethyl}-3-methanesulfonyl-benzamide]

Ki (Cathepsin S): < 10000 nM
Selectivity for Cat. S over Cat. K (Cathepsin K): + (+, >10)
Compound: COc1ccc(NCCNC(=O)[C@H](Cc2ccccc2)NC(=O)c2cccnc2)cc1 [Compound 63, (S)-N-{1-[2-(4-Methoxy-phenylamino)-ethylcarbamoyl]-2-phenyl-ethyl}-nicotinamide]

Ki (Cathepsin S): < 100 nM
Selectivity for Cat. S over Cat. K (Cathepsin K): ++ (++, >100)
Compound: O=C(N[C@@H](CC1CCCCC1)C(=O)NCCNc1ccc(F)cc1)c1ccc(-c2cccc(C(F)(F)F)c2)o1 [Compound 85, 5-(3-Trifluoromethyl-phenyl)-furan-2-carboxylic acid (S)-{2-cyclohexyl-1-[2-(4-fluoro-phenylamino)-ethylcarbamoyl]-ethyl}-amide]

Ki (Cathepsin S): < 100 nM
Selectivity for Cat. S over Cat. K (Cathepsin K): ++ (++, >100)
Compound: COc1ccc(NCCNC(=O)[C@H](CC2CCCCC2)NC(=O)c2cc(-c3ccc(Cl)cc3)cs2)cc1 [Compound 189, (S)-4-(4-Chloro-phenyl)-thiophene-2-carboxylic acid {2-cyclohexyl-1-[2-(4-methoxy-phenylamino)-ethylcarbamoyl]-ethyl}-amide]

Ki (Cathepsin S): < 1000 nM
Selectivity for Cat. S over Cat. K (Cathepsin K): ++ (++, >100)
Compound: O=C(Cn1cnnn1)N[C@@H](CC1CCCCC1)C(=O)NCCNc1ccc(OC(F)(F)F)cc1 [Compound 46, 3-Cyclohexyl-2-(S)-(2-tetrazol-1-yl-acetylamino)-N-[2-(4-trifluoromethoxy-phenylamino)-ethyl]-propionamide]

Ki (Cathepsin S): < 100 nM
Selectivity for Cat. S over Cat. K (Cathepsin K): ++ (++, >100)
Compound: COc1cc(OC)nc(Oc2cccc(C(=O)N[C@@H](CC3CCCCC3)C(=O)NCCNc3ccc(OC(F)(F)F)cc3)c2)n1 [Compound 73, N-(S)-{2-cyclohexyl-1-[2-(4-trifluoromethoxy-phenylamino)-ethylcarbamoyl]-ethyl}-3-(4,6-dimethoxy-pyrimidin-2-yloxy)-benzamide]

Ki (Cathepsin S): < 100 nM
Selectivity for Cat. S over Cat. K (Cathepsin K): +++ (+++, >1000)
Compound: COc1ccc(NCCNC(=O)[C@H](CC2CCCCC2)NC(=O)[C@@H](C)c2ccccc2)cc1 [Compound 192, N-{2-Cyclohexyl-1-(S)-[2-(4-methoxy-phenylamino)-ethylcarbamoyl]-ethyl}-2-(S)-phenyl-propionamide]

Ki (Cathepsin S): < 1000 nM
Selectivity for Cat. S over Cat. K (Cathepsin K): + (+, >10)
Compound: COc1ccc(NCCNC(=O)[C@H](Cc2ccccc2)NC(=O)Nc2ccccc2C)cc1 [Compound 97, (S)-N-[2-(4-Methoxy-phenylamino)-ethyl]-3-phenyl-2-(3-o-tolyl-ureido)-propionamide]

Ki (Cathepsin S): < 100 nM
Selectivity for Cat. S over Cat. K (Cathepsin K): ++ (++, >100)
Compound: O=C(N[C@@H](CC1CCCCC1)C(=O)NCCNc1ccc(OC(F)(F)F)cc1)c1ccoc1 [Compound 26]

Ki (Cathepsin S): < 100 nM
Selectivity for Cat. S over Cat. K (Cathepsin K): +++ (+++, >1000)
Compound: COc1ccc(NCCNC(=O)[C@H](CCC2CCCCC2)NC(=O)c2cccc(C(F)(F)F)c2)cc1 [Compound 126, (S)-N-{3-Cyclohexyl-1-[2-(4-methoxy-phenylamino)-ethylcarbamoyl]-propyl}-3-trifluoromethyl-benzamide]

Ki (Cathepsin S): < 100 nM
Selectivity for Cat. S over Cat. K (Cathepsin K): + (+, >10)
Compound: O=C(N[C@@H](CC1CCCCC1)C(=O)NCCNc1ccc(OC(F)(F)F)cc1)c1ccc(OC(F)F)cc1 [Compound 60, N-(S)-{2-cyclohexyl-1-[2-(4-trifluoromethoxy-phenylamino)-ethylcarbamoyl]-ethyl}-4-difluoromethoxy-benzamide]
